Read-outs that look alike come from different tables or passages of the source.
Tests used:
[1] = Dispersion of Compound 1⋅HCl in stirred water with or without poloxamer 188; assay type: physicochemical; conditions: 0.25 g in 50 mL water, in the presence of poloxamer 188 (0.25 g) vs without
Experimental: Compound 1⋅HCl (0.25 g) was added to each of two stirred beakers containing water (50 mL), one also containing poloxamer 188 (0.25 g). The dispersion of Compound 1 throughout the beaker was higher in the presence of Poloxamer 188.

[2] = assay type: physicochemical
Experimental: Binary mixtures of Compound 1 HCl salt (prepared according to Example 2.1) and excipient were stored at 40° C. and 75% RH for 4 weeks and analysed at weekly intervals for appearance, moisture content (KF) and HPLC purity of Compound 1, with the excipients studied being microcrystalline cellulose, silicified microcrystalline cellulose, lactose, crospovidone, croscarmellose sodium, sodium starch glycolate, magnesium stearate, sodium stearyl fumarate, red iron oxide, blue #2, eudragit, polyvinylpyrrolidone, HPMC-AS, anhydrous citric acid and HPMC.

[3] = Compound 1 pH-solubility at 22° C.; assay type: physicochemical; conditions: thermodynamic from solid
Source text: The solubility of Compound 1 at various pH's was investigated.

Structure (SMILES): CC(C)(C)OC(=O)N1CCN(Cc2ccn(Cc3ccc(Cl)cc3)c(=O)c2O)CC1.Cl [Compound 1 HCl salt]
- Dispersion of Compound 1 throughout the beaker [1]: higher
- Stability on storage ([2]; 40° C. and 75% RH for 4 weeks): stable
- Appearance of binary mixture ([2]; binary mixture with citric acid, 40° C. and 75% RH, after 1 week): liquefied
- API purity by HPLC ([2]; binary mixture with citric acid, 40° C. and 75% RH, after 4 weeks): 34.1%
- Total impurities ([2]; binary mixture with microcrystalline cellulose, 40° C. and 75% RH, after 4 weeks): 0.51%
- Total impurities ([2]; binary mixture with silicified microcrystalline cellulose, 40° C. and 75% RH, after 4 weeks): 0.69%
- solubility ([3]; citrate buffer, aqueous buffer, pH 3 (Citrate 25 mM, l = 0.1), pH 3.0, 22° C.): 600 µg/mL
- solubility ([3]; simulated gastric fluid, 0.1M HCl, pH 1.3, 22° C.): 1810 µg/mL
- solubility ([3]; Water (1 mg/ml load), pH 3.1, 22° C.): 550 µg/mL
- solubility ([3]; Water (5 mg/ml load), pH 2.2, 22° C.): 2070 µg/mL
